Source: the OligoGym collection
HELM strings list units from the 5' end as sugar, base in round brackets, then linkage (d deoxyribose, r ribose, m 2'-O-methyl, p phosphodiester). Strings are as the collection lists them; they lack the last nucleoside at the 3' end of the tested compound. [moe] = 2'-O-(2-methoxyethyl) (MOE); [sp] = phosphorothioate linkage; [m5C] = 5-methylcytosine

Biological target: UBE3A-ATS
Assay: mouse, dose not given
Settings: ASO

| Substance | 3 h FOB score |
| --- | --- |
| RNA1{[moe](T)[sp].[moe](T)p.[moe](T)p.[moe](G)p.[moe](T)p.d(A)[sp].d(G)[sp].d([m5C])[sp].d(T)[sp].d(A)[sp].d(T)[sp].d(A)[sp].d(G)[sp].d(G)[sp].d(T)[sp].[moe](G)p.[moe](T)p.[moe]([m5C])[sp].[moe](A)}$$$$ (last 3' nucleoside missing) | 2.3 score 0-7 |
| RNA1{[moe](T)[sp].[moe](T)p.[moe](T)p.[moe](G)p.[moe]([m5C])p.d(T)[sp].d(T)[sp].d(T)[sp].d(T)[sp].d([m5C])[sp].d(A)[sp].d(G)[sp].d(T)[sp].d([m5C])[sp].d(A)[sp].[moe](G)p.[moe](G)p.[moe](T)[sp].[moe](A)}$$$$ (last 3' nucleoside missing) | 1 score 0-7 |
| RNA1{[moe](T)[sp].[moe](T)p.[moe](T)p.[moe](T)p.[moe](A)p.d(T)[sp].d(T)[sp].d(G)[sp].d(G)[sp].d(T)[sp].d([m5C])[sp].d(A)[sp].d(T)[sp].d([m5C])[sp].d(T)[sp].[moe]([m5C])p.[moe](G)p.[moe](G)[sp].[moe](G)}$$$$ (last 3' nucleoside missing) | 2.3 score 0-7 |
| RNA1{[moe](T)[sp].[moe](T)p.[moe](T)p.[moe](T)p.[moe](T)p.[moe]([m5C])p.d([m5C])[sp].d(A)[sp].d(T)[sp].d(T)[sp].d(T)[sp].d(T)[sp].d(T)[sp].d([m5C])[sp].d(T)[sp].d([m5C])[sp].[moe](T)p.[moe](T)[sp].[moe](A)}$$$$ (last 3' nucleoside missing) | 1 score 0-7 |
| RNA1{[moe](T)[sp].[moe](T)p.[moe](T)p.[moe](T)p.[moe](T)p.d([m5C])[sp].d([m5C])[sp].d(A)[sp].d(T)[sp].d(T)[sp].d(T)[sp].d(T)[sp].d(T)[sp].d([m5C])[sp].d(T)[sp].[moe]([m5C])p.[moe](T)p.[moe](T)[sp].[moe](A)}$$$$ (last 3' nucleoside missing) | 1.3 score 0-7 |
| RNA1{[moe](T)[sp].[moe](T)p.[moe](T)p.[moe](T)p.d(T)[sp].d([m5C])[sp].d([m5C])[sp].d(A)[sp].d(T)[sp].d(T)[sp].d(T)[sp].d(T)[sp].d(T)[sp].d([m5C])[sp].[moe](T)p.[moe]([m5C])p.[moe](T)p.[moe](T)[sp].[moe](A)}$$$$ (last 3' nucleoside missing) | 1 score 0-7 |
| RNA1{[moe](T)[sp].[moe](T)p.[moe](T)p.[moe]([m5C])p.[moe](A)p.d(T)[sp].d([m5C])[sp].d(A)[sp].d(G)[sp].d(T)[sp].d(T)[sp].d(A)[sp].d(G)[sp].d(T)[sp].d([m5C])[sp].[moe](A)p.[moe](G)p.[moe](G)[sp].[moe](T)}$$$$ (last 3' nucleoside missing) | 2 score 0-7 |
| RNA1{[moe](T)[sp].[moe](T)p.[moe]([m5C])p.[moe](A)[sp].d([m5C])[sp].d([m5C])[sp].d(A)[sp].d(T)[sp].d(T)[sp].d(T)[sp].d(T)[sp].d(G)[sp].[moe](A)p.[moe]([m5C])p.[moe]([m5C])p.[moe](T)[sp].[moe](T)}$$$$ (last 3' nucleoside missing) | 0 score 0-7 |
| RNA1{[moe](T)[sp].[moe](T)p.[moe]([m5C])p.[moe](A)p.[moe](T)p.d([m5C])[sp].d(A)[sp].d(G)[sp].d(T)[sp].d(T)[sp].d(A)[sp].d(G)[sp].d(T)[sp].d([m5C])[sp].d(A)[sp].[moe](G)p.[moe](G)p.[moe](T)[sp].[moe](T)}$$$$ (last 3' nucleoside missing) | 4 score 0-7 |
| RNA1{[moe](T)[sp].[moe](T)p.[moe]([m5C])p.[moe](A)p.[moe]([m5C])p.[moe]([m5C])p.d(A)[sp].d(T)[sp].d(T)[sp].d(T)[sp].d(T)[sp].d(G)[sp].d(A)[sp].d([m5C])[sp].d([m5C])[sp].d(T)[sp].[moe](T)p.[moe]([m5C])[sp].[moe](T)}$$$$ (last 3' nucleoside missing) | 0 score 0-7 |
| RNA1{[moe](T)[sp].[moe](T)p.[moe]([m5C])p.[moe](A)p.[moe]([m5C])p.d([m5C])[sp].d(A)[sp].d(T)[sp].d(T)[sp].d(T)[sp].d(T)[sp].d(G)[sp].d(A)[sp].d([m5C])[sp].d([m5C])[sp].[moe](T)p.[moe](T)p.[moe]([m5C])[sp].[moe](T)}$$$$ (last 3' nucleoside missing) | 1 score 0-7 |
| RNA1{[moe](T)[sp].[moe](T)p.[moe]([m5C])p.[moe](A)p.d([m5C])[sp].d([m5C])[sp].d(A)[sp].d(T)[sp].d(T)[sp].d(T)[sp].d(T)[sp].d(G)[sp].d(A)[sp].d([m5C])[sp].[moe]([m5C])p.[moe](T)p.[moe](T)p.[moe]([m5C])[sp].[moe](T)}$$$$ (last 3' nucleoside missing) | 1 score 0-7 |
| RNA1{[moe](T)[sp].[moe](T)p.[moe]([m5C])p.[moe](T)p.[moe](G)p.d(G)[sp].d(A)[sp].d(A)[sp].d(T)[sp].d([m5C])[sp].d(T)[sp].d(T)[sp].d(G)[sp].d(T)[sp].d(A)[sp].[moe](G)p.[moe](A)p.[moe](G)[sp].[moe](G)}$$$$ (last 3' nucleoside missing) | 3 score 0-7 |
| RNA1{[moe](T)[sp].[moe](T)p.[moe]([m5C])p.[moe](T)p.[moe](T)p.d(G)[sp].d([m5C])[sp].d(T)[sp].d(G)[sp].d(A)[sp].d(T)[sp].d([m5C])[sp].d(A)[sp].d([m5C])[sp].d(A)[sp].[moe](T)p.[moe](T)p.[moe](A)[sp].[moe]([m5C])}$$$$ (last 3' nucleoside missing) | 0 score 0-7 |
| RNA1{[moe](T)[sp].[moe](T)p.[moe]([m5C])p.[moe](T)p.[moe]([m5C])p.d(A)[sp].d([m5C])[sp].d([m5C])[sp].d(T)[sp].d(A)[sp].d(G)[sp].d(G)[sp].d([m5C])[sp].d(T)[sp].d(G)[sp].[moe](G)p.[moe](G)p.[moe]([m5C])[sp].[moe]([m5C])}$$$$ (last 3' nucleoside missing) | 2.8 score 0-7 |
| RNA1{[moe](T)[sp].[moe](T)p.[moe]([m5C])p.[moe]([m5C])p.[moe]([m5C])p.d(A)[sp].d(T)[sp].d(T)[sp].d([m5C])[sp].d(A)[sp].d(G)[sp].d([m5C])[sp].d(A)[sp].d([m5C])[sp].d(T)[sp].[moe](T)p.[moe](A)p.[moe](G)[sp].[moe](G)}$$$$ (last 3' nucleoside missing) | 3.3 score 0-7 |
| RNA1{[moe](T)[sp].[moe]([m5C])[sp].[moe]([m5C])[sp].[moe](T)[sp].[moe](T)[sp].d(T)[sp].d(A)[sp].d(G)[sp].d([m5C])[sp].d(A)[sp].d(T)[sp].d(T)[sp].d(T)[sp].d([m5C])[sp].d(T)[sp].[moe](A)[sp].[moe](T)[sp].[moe](T)[sp].[moe](A)}$$$$ (last 3' nucleoside missing) | 6.5 score 0-7 |
| RNA1{[moe](T)[sp].[moe]([m5C])p.[moe](A)p.[moe](A)[sp].d([m5C])[sp].d([m5C])[sp].d(A)[sp].d(A)[sp].d(T)[sp].d(T)[sp].d(T)[sp].d(G)[sp].[moe]([m5C])p.[moe](T)p.[moe](A)p.[moe](T)[sp].[moe](T)}$$$$ (last 3' nucleoside missing) | 0.7 score 0-7 |
| RNA1{[moe](T)[sp].[moe]([m5C])p.[moe](A)p.[moe](A)p.[moe]([m5C])[sp].d([m5C])[sp].d(A)[sp].d(A)[sp].d(T)[sp].d(T)[sp].d(T)[sp].d(G)[sp].d([m5C])[sp].[moe](T)p.[moe](A)p.[moe](T)[sp].[moe](T)}$$$$ (last 3' nucleoside missing) | 3 score 0-7 |
| RNA1{[moe](T)[sp].[moe]([m5C])p.[moe](A)p.[moe](A)p.[moe]([m5C])p.[moe]([m5C])[sp].d(A)[sp].d(A)[sp].d(T)[sp].d(T)[sp].d(T)[sp].d(G)[sp].d([m5C])[sp].d(T)[sp].[moe](A)p.[moe](T)[sp].[moe](T)}$$$$ (last 3' nucleoside missing) | 3 score 0-7 |
| RNA1{[moe](T)[sp].[moe]([m5C])p.[moe](A)p.[moe](A)p.[moe]([m5C])p.d(T)[sp].d(A)[sp].d(T)[sp].d(T)[sp].d(T)[sp].d([m5C])[sp].d(T)[sp].d(A)[sp].d(T)[sp].d([m5C])[sp].[moe](A)p.[moe](A)p.[moe](G)[sp].[moe](G)}$$$$ (last 3' nucleoside missing) | 0 score 0-7 |
| RNA1{[moe](T)[sp].[moe]([m5C])p.[moe](A)p.[moe](A)p.[moe]([m5C])p.d([m5C])[sp].d(A)[sp].d(A)[sp].d(T)[sp].d(T)[sp].d(T)[sp].d(G)[sp].d([m5C])[sp].d(T)[sp].d(A)[sp].[moe](T)p.[moe](T)p.[moe]([m5C])[sp].[moe](A)}$$$$ (last 3' nucleoside missing) | 2 score 0-7 |
| RNA1{[moe](T)[sp].[moe]([m5C])p.[moe](A)p.[moe](G)[sp].d(T)[sp].d(T)[sp].d(A)[sp].d(G)[sp].d(G)[sp].d(T)[sp].d(T)[sp].d(A)[sp].[moe](G)p.[moe](T)p.[moe](G)p.[moe]([m5C])[sp].[moe](A)}$$$$ (last 3' nucleoside missing) | 2.3 score 0-7 |
| RNA1{[moe](T)[sp].[moe]([m5C])p.[moe](A)p.[moe](G)p.[moe](A)p.d(T)[sp].d(T)[sp].d([m5C])[sp].d([m5C])[sp].d(T)[sp].d(A)[sp].d(A)[sp].d(A)[sp].d(T)[sp].d(A)[sp].[moe]([m5C])p.[moe](G)p.[moe]([m5C])[sp].[moe](A)}$$$$ (last 3' nucleoside missing) | 0 score 0-7 |
| RNA1{[moe](T)[sp].[moe]([m5C])p.[moe](A)p.[moe](G)p.[moe](T)[sp].d(T)[sp].d(A)[sp].d(G)[sp].d(G)[sp].d(T)[sp].d(T)[sp].d(A)[sp].d(G)[sp].[moe](T)p.[moe](G)p.[moe]([m5C])[sp].[moe](A)}$$$$ (last 3' nucleoside missing) | 4.3 score 0-7 |
| RNA1{[moe](T)[sp].[moe]([m5C])p.[moe](A)p.[moe](G)p.[moe](T)p.[moe](T)[sp].d(A)[sp].d(G)[sp].d(G)[sp].d(T)[sp].d(T)[sp].d(A)[sp].d(G)[sp].d(T)[sp].[moe](G)p.[moe]([m5C])[sp].[moe](A)}$$$$ (last 3' nucleoside missing) | 3 score 0-7 |
| RNA1{[moe](T)[sp].[moe]([m5C])p.[moe](A)p.[moe](G)p.[moe](T)p.[moe](T)p.d(A)[sp].d(G)[sp].d(G)[sp].d(T)[sp].d(T)[sp].d(A)[sp].d(G)[sp].d(T)[sp].d(G)[sp].d([m5C])[sp].[moe](A)p.[moe]([m5C])[sp].[moe](A)}$$$$ (last 3' nucleoside missing) | 4.8 score 0-7 |
